Patent publication US6833372B2, “Non-peptide GnRH agents, Pharmaceutical compositions, and methods for their use” (Pfizer, Inc., priority 2002, dated 2004)
Values after ≈ are worked out from the molar mass of the structure shown. Where two headings read alike, the source gives them in different places.

How the values were obtained:
[1] = molecular target: T1, GGH3 cells (GH3 cells stably transfected with the rat GnRH receptor) (Rattus norvegicus, UniProt P30969); test: Effect of compounds on 125I-GnRH-A binding to GGH3 cells (competition radioligand binding, whole cells); conditions: on ice 2 hr
T1 construct: host or cells: GH3 cells stably transfected (GGH3), whole cells
T1 sequence (P30969 1-327): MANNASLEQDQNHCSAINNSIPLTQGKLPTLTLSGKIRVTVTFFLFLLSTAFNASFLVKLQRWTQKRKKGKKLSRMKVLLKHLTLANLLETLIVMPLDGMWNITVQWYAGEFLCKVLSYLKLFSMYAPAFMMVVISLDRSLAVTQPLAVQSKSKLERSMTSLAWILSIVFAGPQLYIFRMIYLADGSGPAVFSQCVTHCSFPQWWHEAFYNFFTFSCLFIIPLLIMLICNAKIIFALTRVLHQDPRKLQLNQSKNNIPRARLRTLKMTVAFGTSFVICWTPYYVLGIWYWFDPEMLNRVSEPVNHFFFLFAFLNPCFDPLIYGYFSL
Procedure: Cell Culture. GGH3 cells (Dr. William Chin, Harvard Medical School, Boston, Mass.) are grown in low glucose Dulbecco's modified Eagle's medium (DMEM) containing 100 U/mL penicillin/streptomycin, 0.6 g/L G418 and 10% heat-inactivated FBS.
The reaction mixture is vortexed and incubated for 1 min at room temperature. Two; ml of 0.5 M acetic acid is added to the reaction tube and the mixture is added to a C18 Sep-Pak cartridge: The cartridge is washed with subsequent washes of 5 ml H2O and 5 ml 0.5M acetic acid and then eluted with 5×1 ml of 60% CH3CN/40% 0.5M acetic acid. The eluate is diluted with 3× volume of HPLC buffer A (0.1% TFA in H2O) and loaded onto a C18 column. The iodinated product is eluted over 20-25 min with a gradient of 25-100% CH3CN containing 0.1% TFA. The radioactive fractions (750 μl/fraction) are collected into clean polypropylene tubes containing 100 μl of 10% BSA. Fractions are assessed for biological activity by radioligand binding.
Reactions are performed on ice for 2 hr and stopped by the addition of 2 ml of ice-cold PBS wash buffer (50 mM NaPO4, 0.9% NaCl, 2 mM MgCl2, and 0.02% NaN3, pH 7.4) and rapid filtration onto GF/C filters presoaked with 0.05% polyethylenimine utilizing a Brandel cell harvester. Filters are counted on a gamma counter. […]

human GnRH receptors = molecular target: T2, human GnRH receptors (Homo sapiens, UniProt P30968); test: Radioligand binding: inhibition of 125I-GnRH-A binding to human GnRH receptor membranes; conditions: HEK 293 cell membranes
T2 construct: expressed in transfected cells; host or cells: HEK 293 cells, stably transfected; membranes
T2 sequence (P30968 1-328): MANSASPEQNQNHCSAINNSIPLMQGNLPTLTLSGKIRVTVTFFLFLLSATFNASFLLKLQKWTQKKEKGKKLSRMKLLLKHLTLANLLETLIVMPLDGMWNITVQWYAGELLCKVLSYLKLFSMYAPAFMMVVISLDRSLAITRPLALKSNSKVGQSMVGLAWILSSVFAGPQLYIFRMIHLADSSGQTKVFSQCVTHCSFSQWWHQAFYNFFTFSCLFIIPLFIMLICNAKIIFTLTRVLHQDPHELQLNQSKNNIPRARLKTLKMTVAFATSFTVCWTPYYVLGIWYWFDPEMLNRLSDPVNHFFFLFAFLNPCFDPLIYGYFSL
Outline: (§1)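 Membranes from rat pituitaries, or HEK 293 cells stably expressing mouse or human receptor, incubated 1 hour at room temperature with ~0.04-0.06 nM radioligand (HEPES pH 7.4, EDTA, MgCl2, BSA) and competitor at 0.1-10,000 nM. Bound ligand collected by GF/C filtration and counted; Ki derived from IC50 by Cheng-Prusoff.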

mouse GnRH receptors = molecular target: T3, mouse GnRH receptors (Mus musculus, UniProt Q01776); test: Radioligand binding: inhibition of 125I-GnRH-A binding to mouse GnRH receptor membranes; conditions: HEK 293 cell membranes
T3 construct: expressed in transfected cells; host or cells: HEK 293 cells, stably transfected; membranes
T3 sequence (Q01776 1-327): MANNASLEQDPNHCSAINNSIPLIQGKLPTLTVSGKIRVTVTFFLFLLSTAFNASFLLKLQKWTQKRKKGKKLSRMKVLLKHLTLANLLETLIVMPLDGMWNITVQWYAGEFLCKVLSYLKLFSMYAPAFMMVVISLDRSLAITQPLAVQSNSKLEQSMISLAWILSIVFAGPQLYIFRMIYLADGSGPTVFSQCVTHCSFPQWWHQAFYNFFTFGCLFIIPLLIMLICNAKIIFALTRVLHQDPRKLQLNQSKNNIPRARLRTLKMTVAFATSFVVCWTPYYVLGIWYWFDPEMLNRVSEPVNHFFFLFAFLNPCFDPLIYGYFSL
Procedure: HEK 293 cells stably transfected with mouse or human GnRH receptors as described above were grown in Dulbecco's high-glucose, modified Eagle's medium (DMEM) supplemented with 0.2% G418, 10% fetal bovine serum (FBS) and 100 U/mL penicillin/streptomycin. GH3 cells stably transfected with the rat GnRH receptor (GGH3) were provided by Dr. William Chin (Harvard Medical School, Boston, Mass.). These cells have been extensively characterized previously (Kaiser et al., 1997). The cells were grown in low glucose DMEM containing: 100U/mL penicillin/streptomycin, 0.6% G418 and 10% heat-inactivated FBS.
HEK 293 cells containing mouse or human receptors, or rat pituitaries (Pel Freez Biologicals, Rogers, Ark.) were homogenized in buffer A containing: 50 mM Tris (pH 7.4), 0.32 M sucrose, 2 mM EGTA, 1 mM PMSF, 5 μg/ml aprotinen, 5 μg/ml Pepstatin A, and 1 μg/ml leupeptin. Homogenized cells were centrifuged at 4° C. at 20,000×g for 25 minutes, re-suspended in buffer A and re-centrifuged at 4° C. at 20,000×g for an additional 25 minutes. Total membrane protein was determined with a BCA kit (Pierce, Rockford, Ill.). Membranes were stored at −70° C. at a final membrane protein concentration of approximately 5 mg/ml.
The radioiodinated agonist analog of GnRH, [des-Gly^10,D-Ala^6]GnRH ethylamide (^125I-GnRH-A), was used as the radioligand. […] The reaction mixture was vortexed and incubated for 1 minute at room temperature. After one minute, the mixture was vortexed and allowed to incubate for an additional minute. 2 ml of 0.5 M acetic acid/1% BSA was added to the reaction tube and the mixture was added to a C18 Sep-Pak cartridge. The cartridge was washed with subsequent washes of 5 ml H2O and 5 ml 0.5 M acetic acid and then eluted with 5×1 ml of 60% CH3CN/40% 0.5 M acetic acid. The eluate was diluted with 3× volume of HPLC buffer A (0.1% TFA in H2O) and loaded onto a C18 column. The iodinated product was eluted over 20-25 min with a gradient of 25-100% CH3CN containing 0.1% TFA. The radioactive fractions (750 μl/fraction) were collected into clean polypropylene tubes containing 100 μl of 10% BSA. Fractions were assessed for biological activity by radioligand binding. Specific activity of the radioligand was approximately 2200 Ci/mmol.
Membranes were diluted to 0.01-0.5 mg/ml (depending upon the species of receptor) with assay buffer containing 50 mM HEPES (pH 7.4), 1 mM EDTA, 2.5 mM MgCl2, and 0.1% BSA. Membranes (diluted to utilize similar receptor numbers between assays) were incubated with approximately 0.04-0.06 nM ^125I-GnRH-A in the presence or absence of competing agents (0.1-10,000 nM) in a total volume of 200 μl in 96-well polypropylene plates for 1 hour at room temperature. Assays were stopped by rapid filtration onto 96-well GF/C filters soaked in 0.1% polyethylenimine (PEI) utilizing a Packard 96-well cell harvester. Filters were washed three times with ice-cold PBS (50 mM NaPO4, 0.9% NaCl, 2 mM MgCl2, and 0.02% NaN3, pH 7.4). 35 μl of scintillation cocktail was added to each filter well and filters were counted on a Packard Topcount. Control dose-response curves were generated to GnRH (0.1 nM-100 nM) in each competition binding experiment. Ki values were calculated from IC50 values according to Cheng et al., Biochemical Pharmacol. 22: 3099-3108, 1973. [formula]

rat GnRH receptor = molecular target: T4, rat GnRH receptor (Rattus norvegicus, UniProt P30969); test: Radioligand binding: inhibition of 125I-GnRH-A binding to rat GnRH receptor (rat pituitary membranes); conditions: read-out: Ki (nM), Inhibition Binding of 125I-GnRH-A to GnRH Receptors
T4 construct: or rat pituitaries (Pel Freez Biologicals, Rogers, Ark.) were homogenized; tissue Pel Freez Biologicals; host or cells: rat pituitaries (membrane preparation)
T4 sequence (P30969 1-327): T1 sequence (P30969 1-327)
Outline: as §1

[2] = In vitro metabolism: disappearance of parent compound in human liver microsomes; assay type: in vitro ADME; conditions: 5 uM compound, 0.5 mg/ml protein, 2 mM NADPH, 30 minutes 37° C.
Outline: (§2)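 Microsomes from human, rat (male, female), dog and monkey liver incubated with 5 uM compound, 0.5 mg/ml protein and 2 mM NADPH in 50 mM K phosphate, pH 7.4, for 30 min at 37° C. Reaction stopped with acetonitrile; parent compound remaining measured by LC-MS.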

[3] = In vitro metabolism: disappearance of parent compound in rat liver microsomes (male, female); assay type: in vitro ADME; conditions: 5 uM compound, 30 minutes 37° C.
Outline: as §2

[4] = In vitro metabolism: disappearance of parent compound in dog liver microsomes; assay type: in vitro ADME; conditions: 5 uM compound, 30 minutes 37° C.
Outline: as §2

[5] = In vitro metabolism: disappearance of parent compound in monkey liver microsomes; assay type: in vitro ADME; conditions: 5 uM compound, 30 minutes 37° C.
Outline: as §2

Rat plasma % remain = assay type: in vitro ADME
[6] = Solubility at pH2 and pH6; assay type: physicochemical

| Ki (human GnRH receptors) | Ki (mouse GnRH receptors) | Ki (rat GnRH receptor) | Molecule | ability to inhibit 125I-GnRH-A binding to GGH3 cells [1] | other results |
| --- | --- | --- | --- | --- | --- |
| – | – | – | Ac-D-2-Nal-p-chloro-D-Phe-β-(3-pyridyl)-D-Ala-Ser-Lys(nicotinoyl)-D-Lys(nicotinoyl)-Leu-Lys(isopropyl)-Pro-D-Ala-NH2 [Antide] | blocked | – |
| 1.6 nM | 1.7 nM | 0.92 nM | COc1nc(NCCN2CCCC2)nc(OC)c1NC(=O)c1ccc(Cc2cc3c(cc2C)C(C)(C)OC3(C)C)o1 [Example D23, N-{4,6-Dimethoxy-2-[(2-pyrrolidin-1-ylethyl)amino]-pyrimidin-5-yl}-5-[(1,1,3,3,6-pentamethyl-1,3-dihydro-2-benzofuran-5-yl)methyl]-2-furamide Acetate] | – | – |
| 1 nM | 0.75 nM | 0.79 nM | CNc1nc(OC)c(NC(=O)c2ccc(Cc3cc4c(cc3C)C(C)(C)CCC4(C)C)o2)c(OC)n1 [Example B1, 5-(3,5,5,8,8-Pentamethyl-5,6,7,8-tetrahydro-naphthalen-2-ylmethyl)-furan-2-carboxylic Acid (4,6-dimethoxy-2-methylamino-pyrimidin-5-yl)-amide] | – | Human % rem. 30′ [2]: 54%; Fem. Rat (FR) % rem. 30′ ([3]; female rat liver microsomes): 94%; Male Rat (MR) % rem. 30′ ([3]; male rat liver microsomes): 1%; Dog % rem. 30′ [4]: 2%; Monkey % rem. [5]: 0%; Rat plasma % remain (Rat plasma % remain): 100%; solubility ([6]; pH 2, simulated gastric fluid, pH2, read-out: Solubility μg/ml pH2): 1.2 µg/mL (≈ 2.44 µM); solubility ([6]; pH 6, aqueous buffer, pH6, read-out: Solubility μg/ml pH6): 0.4 µg/mL (≈ 0.812 µM) |
| 4.7 nM | 5.3 nM | 14 nM | COc1nc(N2CCOCC2)nc(OC)c1NC(=O)c1ccc(Cc2cc3c(cc2C)C(C)(C)CCC3(C)C)o1 [Example B3, 5-(3,5,5,8,8-Pentamethyl-5,6,7,8-tetrahydro-naphthalen-2-ylmethyl)-furan-2-carboxylic Acid (4,6-dimethoxy-2-morpholin-4-yl-pyrimidin-5-yl)-amide] | – | – |
| – | – | – | pGlu-His-Trp-Ser-Tyr-Gly-Leu-Arg-Pro-Gly-NH2 [GnRH] | blocked | – |
